Assay results taken from US20040209897A1 (Pharmacia Corporation, priority 2002, published 2004).
Where a name gives a salt, the structure may show the parent alone.

biological target: Recombinant MAPKAPK2 (MK-2) (Homo sapiens, UniProt P49137); test: Determination of MK-2 IC50 (HSP-peptide phosphorylation, anion exchange resin capture assay); assay type: biochemical; details: MAPKAP2 Avg. IC50
Sequence (P49137 whole entry, species assumed): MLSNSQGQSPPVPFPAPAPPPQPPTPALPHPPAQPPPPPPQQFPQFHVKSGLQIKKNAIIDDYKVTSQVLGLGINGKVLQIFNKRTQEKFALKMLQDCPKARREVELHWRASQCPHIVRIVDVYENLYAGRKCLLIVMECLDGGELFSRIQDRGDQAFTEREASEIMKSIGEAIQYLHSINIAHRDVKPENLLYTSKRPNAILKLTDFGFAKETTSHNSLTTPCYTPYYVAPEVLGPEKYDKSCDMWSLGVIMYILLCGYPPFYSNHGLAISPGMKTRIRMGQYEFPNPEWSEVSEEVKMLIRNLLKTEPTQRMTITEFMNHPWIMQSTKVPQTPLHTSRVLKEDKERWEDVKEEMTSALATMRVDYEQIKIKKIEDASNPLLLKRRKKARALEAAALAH
Method: The phosphorylation of HSP-peptide ([sequence]) by MAPKAPK2 was measured using an anion exchange resin capture assay method. […] The reaction was terminated and [γ^33P]ATP was removed from solution by the addition of 150 μl of AG 1×8 ion exchange resin in 900 mM sodium formate pH 3.0. A 50 μl aliquot of head volume was removed from the quenched reaction mixture and added to a 96-well plate, 150 μl of Microscint-40 (Packard) was added and the amount of phosphorylated-peptide was determined.
Compounds are evaluated as potential inhibitors of the MK2 kinase by measuring their effects on MK2 phosphorylation of the peptide substrate. Compounds may be screened initially at two concentrations prior to determination of IC50 values. Screening results are expressed as percent inhibition at the concentrations of compound tested. For IC50 value determinations, compounds are tested at six concentrations in ten-fold serial dilutions with each concentration tested in triplicate. Results are expressed as IC50 values in micromolar. The assay is performed at a final concentration of 2% DMSO.

SMILES | IC50
O=C1NCCc2[nH]c(-c3ccnc(/C=C/c4ccccc4N4CCNCC4)c3)cc21 [Example 667, trifluoroacetate] | 791 nM
C=C(C)C(=O)Nc1cccc(-c2cc(-c3cc4c([nH]3)CCNC4=O)ccn2)c1 [Example 287, trifluoroacetate] | 52.5 nM
C=CC(=O)NCc1cccc(-c2cc(-c3cc4c([nH]3)CCNC4=O)ccn2)c1 [Example 351, hydrochloride] | 69.2 nM
Nc1cccc(-c2cc(-c3cc4c([nH]3)CCNC4=O)ccn2)c1 [Example 431, trifluoroacetate] | 99.3 nM
COCCN(C)c1ccccc1/C=C/c1cc(-c2cc3c([nH]2)CCNC3=O)ccn1 [Example 716, trifluoroacetate] | 1810 nM
O=C1NCCc2[nH]c(-c3ccnc(/C=C/c4ccc(-c5ccccc5)cc4)c3)cc21 [Example 639, trifluoroacetate] | 562 nM
CC(=O)c1ccc(-c2cc(-c3cc4c([nH]3)CCNC4=O)ccn2)cc1 [Example 280, trifluoroacetate] | 51.2 nM
CN(C)C/C=C/C(=O)NCc1cccc(-c2cc(-c3cc4c([nH]3)CCNC4=O)ccn2)c1 [Example 465] | 118 nM
O=Cc1cccc(-c2cc(-c3cc4c([nH]3)CCNC4=O)ccn2)c1 [Example 204, trifluoroacetate] | 35.5 nM
O=C(NCc1ccccc1)c1cc(-c2cc3c([nH]2)CCNC3=O)ccn1 [Example 787, trifluoroacetate] | 14400 nM
O=C(O)/C=C\C(=O)NCc1cccc(-c2cc(-c3cc4c([nH]3)CCNC4=O)ccn2)c1 [Example 369, trifluoroacetate] | 76 nM
O=C1NCCc2[nH]c(-c3ccnc(-c4cc(F)cc(F)c4)c3)cc21 [Example 80, trifluoroacetate] | 18.5 nM
O=C1NC(c2ccccc2)Cc2[nH]c(-c3ccnc(-c4cccc(F)c4)c3)cc21 (centres unmarked) [Example 767, 2-[2-(3-fluorophenyl)pyridin-4-yl]-6-phenyl-1,5,6,7-tetrahydro-4H-pyrrolo[3,2-c]pyridin-4-one trifluoroacetate] | 7750 nM
O=C(CCCl)Nc1cccc(-c2cc(-c3cc4c([nH]3)CCNC4=O)ccn2)c1 [Example 336, trifluoroacetate] | 64.5 nM
O=C1NCCc2[nH]c(-c3ccnc(/C=C/c4cc(F)ccc4F)c3)cc21 [Example 196, trifluoroacetate] | 33.6 nM
O=C1NCCc2[nH]c(-c3ccnc(-c4cccc(CN5CCCC5)c4)c3)cc21 [Example 660, trifluoroacetate] | 750 nM
CC1CNC(=O)c2cc(-c3ccnc(-c4ccccc4F)c3)[nH]c21 (centres unmarked) [Example 505] | 145 nM

More lines, in order of falling IC50, values ahead:

IC50 | SMILES
2330 nM | C=CC(=O)N(CCNC(=O)OC(C)(C)C)c1ccc(-c2cc(-c3cc4c([nH]3)CCNC4=O)ccn2)cn1 [Example 732, trifluoroacetate]
348 nM | O=C1NCCc2[nH]c(-c3ccnc(/C=C/c4csc(-c5ccccc5)n4)c3)cc21 [Example 602, trifluoroacetate]
295 nM | O=C1NCCc2[nH]c(-c3ccnc(/C=C/c4cccc(Oc5ccccc5)c4)c3)cc21 [Example 581, trifluoroacetate]
279 nM | Cc1cccc(/C=C/c2cc(-c3cc4c([nH]3)CCNC4=O)ccn2)c1C [Example 577, trifluoroacetate]
66.1 nM | O=C1NCCc2[nH]c(-c3ccnc(-c4ccc(CCc5ccc(F)cc5)nc4)c3)cc21 [Example 345, trifluoroacetate]
35.1 nM | COC(=O)Nc1ccc(-c2cc(-c3cc4c([nH]3)CCNC4=O)ccn2)cc1 [Example 203, trifluoroacetate]
32.4 nM | O=C1NCCc2[nH]c(-c3ccnc(/C=C/c4cccc(CCN5CCOCC5)c4)c3)cc21 [Example 192, trifluoroacetate]
22.5 nM | Cc1cncc(-c2cc(-c3cc4c([nH]3)CCNC4=O)ccn2)c1 [Example 111, trifluoroacetate]
7 nM | O=C1NCCc2[nH]c(-c3cc(-c4cnc5ccccc5c4)ncc3F)cc21 [Example 4, trifluoroacetate]
